Laboratory results as given in patent US10065990B2, “Cyclic peptide compound, and preparation method, pharmaceutical composition and use thereof” (HANGZHOU GUANYU BIO-MEDICAL CO., LTD, priority 2013, dated 2018).
Read-outs that look alike come from different tables or passages of the source.

Key:
[1] = molecular target: HDAC1 (Homo sapiens, UniProt Q13547); test: HDAC biochemical activity measurement (fluorescent substrate deacetylation);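 also: fluorogenic acetyl-lysine substrate (20 µM) deacetylated by HDAC1, then developer releases fluorophore read at 360 nm excitation and 460 nm emission, inhibitor incubated 30 min at 37 °C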
Chain of HDAC1 (Q13547 whole entry, species assumed): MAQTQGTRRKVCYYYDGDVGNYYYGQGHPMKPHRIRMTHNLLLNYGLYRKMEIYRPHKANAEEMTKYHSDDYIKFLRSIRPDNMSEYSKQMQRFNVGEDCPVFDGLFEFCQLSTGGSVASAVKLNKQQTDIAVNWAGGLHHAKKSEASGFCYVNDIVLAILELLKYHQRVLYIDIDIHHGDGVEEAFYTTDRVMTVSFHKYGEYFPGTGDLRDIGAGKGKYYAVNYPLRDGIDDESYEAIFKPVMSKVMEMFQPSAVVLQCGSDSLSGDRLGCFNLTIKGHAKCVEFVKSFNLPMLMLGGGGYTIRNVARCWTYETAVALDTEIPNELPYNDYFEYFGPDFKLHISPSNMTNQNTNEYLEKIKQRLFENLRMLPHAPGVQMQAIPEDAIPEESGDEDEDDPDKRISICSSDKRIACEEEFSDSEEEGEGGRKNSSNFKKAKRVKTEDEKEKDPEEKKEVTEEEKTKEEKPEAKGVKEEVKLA

[2] = molecular target: HDAC2 (Homo sapiens, UniProt Q92769); test: as above; settings: 37° C. 30 minutes;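 also: HDAC2 enzyme with an acetyl-lysine fluorescent substrate, then developer added, fluorescence read at excitation 360 nm and emission 460 nm, inhibition measured across several compound concentrations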
Chain of HDAC2 (Q92769 whole entry, species assumed): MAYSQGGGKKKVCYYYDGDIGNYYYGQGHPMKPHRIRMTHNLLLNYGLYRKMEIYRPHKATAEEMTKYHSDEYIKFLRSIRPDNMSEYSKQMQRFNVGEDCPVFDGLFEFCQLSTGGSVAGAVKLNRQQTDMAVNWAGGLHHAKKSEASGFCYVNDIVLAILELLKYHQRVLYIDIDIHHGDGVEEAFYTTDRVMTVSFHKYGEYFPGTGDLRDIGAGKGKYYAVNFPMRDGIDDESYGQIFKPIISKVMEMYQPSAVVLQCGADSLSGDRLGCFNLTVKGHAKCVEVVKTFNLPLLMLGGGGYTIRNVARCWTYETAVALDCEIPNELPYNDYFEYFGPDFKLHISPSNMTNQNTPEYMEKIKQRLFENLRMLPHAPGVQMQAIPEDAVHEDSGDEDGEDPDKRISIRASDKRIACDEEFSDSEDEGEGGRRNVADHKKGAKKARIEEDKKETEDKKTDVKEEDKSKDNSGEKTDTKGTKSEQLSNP

[3] = molecular target: T1, HDAC8 (Homo sapiens, UniProt Q9BY41); test: as above; settings: 37° C. 30 minutes
T1 sequence (Q9BY41 1-377): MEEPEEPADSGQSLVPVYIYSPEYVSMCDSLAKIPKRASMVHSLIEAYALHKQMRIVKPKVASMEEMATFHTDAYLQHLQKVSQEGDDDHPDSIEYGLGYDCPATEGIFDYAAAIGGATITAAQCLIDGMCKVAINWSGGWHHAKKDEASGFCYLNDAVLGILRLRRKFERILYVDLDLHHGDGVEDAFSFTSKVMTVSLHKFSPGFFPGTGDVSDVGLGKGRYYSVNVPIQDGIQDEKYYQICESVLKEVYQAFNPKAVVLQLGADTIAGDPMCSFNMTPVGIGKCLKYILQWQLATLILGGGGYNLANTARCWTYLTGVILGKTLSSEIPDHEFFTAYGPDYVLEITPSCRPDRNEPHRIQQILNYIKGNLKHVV

[4] = molecular target: T2, HDAC7 (Homo sapiens, UniProt Q8WUI4); test: as above; settings: HDAC7; 37° C. 30 minutes;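 also: fluorogenic deacetylation assay using acetyl-lysine substrate at 20 µM, enzyme and compound incubated 30 min at 37 °C, then developer added, fluorescence read at 360/460 nm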
T2 sequence (Q8WUI4 1-952): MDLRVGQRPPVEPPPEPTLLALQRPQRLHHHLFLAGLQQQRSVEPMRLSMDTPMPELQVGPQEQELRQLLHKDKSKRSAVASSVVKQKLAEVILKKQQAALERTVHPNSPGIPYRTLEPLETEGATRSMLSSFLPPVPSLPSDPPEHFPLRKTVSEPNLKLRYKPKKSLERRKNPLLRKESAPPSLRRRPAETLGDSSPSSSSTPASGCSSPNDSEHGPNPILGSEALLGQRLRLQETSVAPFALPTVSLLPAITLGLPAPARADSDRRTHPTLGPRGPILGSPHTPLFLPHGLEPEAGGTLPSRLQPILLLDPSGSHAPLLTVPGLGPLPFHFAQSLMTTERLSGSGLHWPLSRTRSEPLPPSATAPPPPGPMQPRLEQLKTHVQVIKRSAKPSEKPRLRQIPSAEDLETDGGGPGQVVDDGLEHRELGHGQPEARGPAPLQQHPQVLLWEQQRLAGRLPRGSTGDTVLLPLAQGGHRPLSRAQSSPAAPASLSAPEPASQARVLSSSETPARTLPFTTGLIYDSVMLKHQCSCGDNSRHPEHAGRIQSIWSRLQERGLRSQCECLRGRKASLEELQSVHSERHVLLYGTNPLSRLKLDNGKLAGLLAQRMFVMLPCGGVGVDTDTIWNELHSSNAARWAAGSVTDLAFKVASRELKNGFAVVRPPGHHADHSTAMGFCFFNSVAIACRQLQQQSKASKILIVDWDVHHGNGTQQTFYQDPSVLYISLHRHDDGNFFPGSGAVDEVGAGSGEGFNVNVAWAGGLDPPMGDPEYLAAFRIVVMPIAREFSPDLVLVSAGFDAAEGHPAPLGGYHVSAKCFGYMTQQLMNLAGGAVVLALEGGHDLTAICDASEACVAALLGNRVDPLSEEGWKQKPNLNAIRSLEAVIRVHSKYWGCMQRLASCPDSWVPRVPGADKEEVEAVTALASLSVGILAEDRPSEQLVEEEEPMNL

[5] = molecular target: HDAC3 (Homo sapiens, UniProt O15379); test: as above; settings: read-out: IC50 HDAC3; HDAC3; 37° C. 30 minutes;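 also: fluorogenic acetyl-lysine substrate (20 µM) deacetylated by HDAC3, then developer added for 15 min at room temperature, release of fluorophore read at excitation 360 nm, emission 460 nm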
Chain of HDAC3 (O15379 whole entry, species assumed): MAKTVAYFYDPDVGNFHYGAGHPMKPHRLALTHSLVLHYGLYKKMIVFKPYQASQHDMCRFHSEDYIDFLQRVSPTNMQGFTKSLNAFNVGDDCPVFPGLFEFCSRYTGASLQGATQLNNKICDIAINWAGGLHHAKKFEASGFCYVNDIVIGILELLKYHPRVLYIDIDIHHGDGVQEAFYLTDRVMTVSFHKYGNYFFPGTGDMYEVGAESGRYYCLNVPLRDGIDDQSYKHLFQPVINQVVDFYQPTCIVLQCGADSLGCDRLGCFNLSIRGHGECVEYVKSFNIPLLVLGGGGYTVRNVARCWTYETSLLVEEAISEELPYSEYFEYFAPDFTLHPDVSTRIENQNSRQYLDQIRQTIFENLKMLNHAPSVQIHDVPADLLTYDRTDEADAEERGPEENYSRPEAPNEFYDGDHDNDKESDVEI
Chain of HDAC3 (Q9Y618 395-489 partner limits assumed, species assumed): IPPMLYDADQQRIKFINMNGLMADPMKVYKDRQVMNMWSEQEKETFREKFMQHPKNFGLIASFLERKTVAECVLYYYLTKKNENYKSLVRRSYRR
Procedure: (§2) The chemical activity of the compound is determined according to the degree of deacetylation inhibition of the HDAC enzyme. This experiment measured the degree of deacetylation related to tumor proliferation and metastasis of HDAC1, HDAC2, HDAC3, HDAC8, HDAC11 five subtypes HDAC enzymes. After the substrate containing an acetylated lysine side chain and HDAC enzyme are labeled with a fluorescent label, the fluorescent substrate is de acetyl. The fluorescent labeled substrate is cleaved by the enzyme, and the fluorescent substance is released, which generates 460 nm emission light under the excitation of 360 nm light.
(§3) HDAC substrate was diluted with reaction buffer to 200M (reaction concentration of 20M), the HDAC enzyme was diluted to the appropriate concentration, then added different concentrations of the test compounds and acted at 37° C. 30 minutes, and then added the same volume of 2-times concentration substrate developing solution (developer), incubated at room temperature for 15 minutes.

[6] = molecular target: T3, HDAC11 (Homo sapiens, UniProt Q96DB2); test: as above; settings: read-out: IC50 HDAC11; HDAC11; 37° C. 30 minutes;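 also: HDAC11 enzyme acting on an acetyl-lysine fluorogenic substrate, then a developer frees the fluorophore, read at excitation 360 nm and emission 460 nm, IC50 over a compound dilution series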
T3 sequence (Q96DB2 1-347): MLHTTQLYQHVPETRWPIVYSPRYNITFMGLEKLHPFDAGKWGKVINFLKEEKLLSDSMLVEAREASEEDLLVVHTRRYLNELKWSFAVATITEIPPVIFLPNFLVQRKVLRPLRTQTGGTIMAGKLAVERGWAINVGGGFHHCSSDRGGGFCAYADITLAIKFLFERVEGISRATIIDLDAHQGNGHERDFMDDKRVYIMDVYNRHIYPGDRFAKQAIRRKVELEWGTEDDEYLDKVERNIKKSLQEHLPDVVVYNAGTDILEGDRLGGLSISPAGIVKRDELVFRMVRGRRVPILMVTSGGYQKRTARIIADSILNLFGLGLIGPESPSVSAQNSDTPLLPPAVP
Procedure: as §2, §3

[7] = tested on: A549 (human lung cancer cells); test: MTT cancer cell growth inhibition; assay type: cell-based; settings: MTT, 72 hours incubation; read-out: GI50 A54
In short: (§1)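 Three-day compound exposure (final 10^−5–10^−10 M, three replicate wells) of cells seeded at 1500 per well precedes a 4 h MTT incubation at 37° C. Viability is taken from 570 nm absorbance after DMSO solubilisation, and GI50 calculated from it.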

[8] = tested on: BGC-823 (human gastric cancer cells); test: MTT cancer cell growth inhibition; assay type: cell-based; settings: MTT, 72 hours incubation; read-out: GI50 BG
In short: as §1

[9] = tested on: DU145 (human prostate cancer cells); test: MTT cancer cell growth inhibition; assay type: cell-based; settings: MTT, 72 hours incubation; read-out: GI50 Du1
In short: as §1

[10] = tested on: HT1080 (human fibrosarcoma cells); test: MTT cancer cell growth inhibition; assay type: cell-based; settings: MTT, 72 hours incubation; read-out: GI50 HT1
In short: as §1

[11] = tested on: Hela (human cervical cancer cells); test: MTT cancer cell growth inhibition; assay type: cell-based; settings: MTT, 72 hours incubation; read-out: GI50 Hela
In short: as §1

[12] = tested on: MCF-7 (human breast cancer cells); test: MTT cancer cell growth inhibition; assay type: cell-based; settings: 72 hours incubation, read-out: GI50 MCF
In short: as §1

[13] = tested on: MOLT-4 (human acute lymphoblastic leukemia cells); test: MTT cancer cell growth inhibition; assay type: cell-based; settings: MTT, 72 hours incubation; read-out: GI50 Mol
In short: as §1

[14] = tested on: PANC-1 (Pac-1, human pancreatic cancer cells); test: MTT cancer cell growth inhibition; assay type: cell-based; settings: MTT, 72 hours incubation; read-out: GI50 PAN
In short: as §1

[15] = tested on: U937 (human leukemia cells); test: MTT cancer cell growth inhibition; assay type: cell-based; settings: MTT, 72 hours incubation; read-out: GI50 U93
In short: as §1

[16] = tested on: lncap (prostate cancer cells); test: MTT cancer cell growth inhibition; assay type: cell-based; settings: MTT, 72 hours incubation; read-out: GI50 lnca
In short: as §1

[17] = HDAC1, 37° C. 30 minutes, read-out: IC50 HDAC1

| IC50 [1, 17] | IC50 [2] | IC50 [3] | IC50 HDAC7 [4] | IC50 [5] | IC50 [6] | IC50 ([1]; Table 3, column C, read-out: IC50 HDAC1, C (six-membered ring with substituents)) | GI50 [7] | GI50 [8] | GI50 [9] | GI50 [10] | GI50 [11] | GI50 [12] | GI50 [13] | GI50 [14] | GI50 [15] | GI50 [16] | Compound |
| --- | --- | --- | --- | --- | --- | --- | --- | --- | --- | --- | --- | --- | --- | --- | --- | --- | --- |
| 84 nM | 43 nM | 26 nM | no activity | 29 nM | 105 nM | – | – | – | – | – | – | – | – | – | – | – | C/C=C1\NC(=O)c2ccc(F)c(n2)CNC(=O)C[C@@H](/C=C/CCSC=O)OC(=O)[C@H](C(C)C)NC1=O [Example 53] |
| 16 nM | 46 nM | 38 nM | – | 48 nM | 73 nM | 16 nM | 60 nM | 70 nM | 10 nM | 70 nM | 80 nM | 50 nM | 20 nM | 70 nM | 30 nM | 20 nM | C/C=C1\NC(=O)c2cc(F)cc(n2)CNC(=O)C[C@@H](/C=C/CCSC(C)=O)OC(=O)[C@H](C(C)C)NC1=O [Compound 49] |
